Test results as given in US8557516B2, “AKT tyrosine 176 phosphorylation cancer biomarker” (H. Lee Moffitt Cancer Center and Research Institute, Inc., priority 2009, dated 2013).

Test system: AKT Tyr176-phosphorylation
Test: Cell fractionation and immunoblotting of pTyr176-AKT in MCF-7 cells
Format: cell-based, human
Settings: MCF-7 cells serum starved 24 h; insulin 50 ng/ml or heregulin 30 ng/ml
Description: (§1) FIG. 27 is a blot showing Tyr176-phosphorylation regulates AKT plasma membrane localization. MCF-7 cells were serum starved (24 h) and treated with insulin (50 ng/ml) or for indicated times. Cell lysates were fractionated and IB with the indicated antibodies. Input panels pAck1 (Tyr), pIR(Tyr) and pHER-2(Tyr) represents IP with respective antibodies followed by IB with pTyr antibodies.
as §1, with “28” for “27”, “(C) heregulin (30” for “with insulin (50”, “ng/ml)” for “ng/ml) or”
FIG. 29 is a blot showing Tyr176-phosphorylation regulates AKT plasma membrane localization. MCF7 cells were transfected with control or Ack1-specific siRNAs (40 nM) for 48 h and treated with heregulin for 40 mins. Cell lysates were fractionated and IB with indicated antibodies.
FIG. 34 is a blot showing Tyr176-phosphorylation of AKT is PI3K-independent. MCF-7 cells were pretreated with LY294002 (10 μM, 1 h) followed by heregulin for 40 mins. Cell lysates were fractionated and membrane fraction was subjected to IB with indicated antibodies.
Cell fractionation, immunoprecipitations and kinase assay. […]

| Substance | time of optimal AKT Tyr-176 phosphorylation and plasma membrane accumulation [min] |
| --- | --- |
| heregulin | 40 |
| insulin: growth factor ligand used to stimulate cells | 30 |
